Data on 3 compounds can be found in US8097728B2, “Iminosugar compounds with antiflavirus activity” (Philadelphia Health & Education Corporation, priority 2007, dated 2012).

The structures appear in SMILES notation. “Also recorded” adds a separate entry of the source. Like-named read-outs stand apart in the source and are kept apart here.

The test system of one data set is ER glucosidase. The conditions noted are these: 6000 uM; cited from earlier work.
A further data set deals with HBV. The data set can be described thus: HBV antigen assay: LHBs and MHBs secreted by HepG2.2.15 cells, immunoblot. The format is cell-based, Hepatitis B virus. The conditions noted are these: 7 days. The method, then: MHBs and LHBs are HBV envelope proteins that are sensitive to glucosidase inhibition and inhibition of these important viral glycoproteins serves as a surrogate for HBV growth. […] To assess the activity of this compound in the context of viral replication, HepG2 2.2.15 cells were incubated with the indicated DNJ derived compound. HepG 2.2.15 cells secrete readily detectable amounts of MHBs and LHBs into the culture medium. After 7 days of incubation, the amount of HBV M and L in the culture medium was determined by western blot. […] The nature of the selective antiviral activity is not known, but may be due to cell specific activity since HBV is studied in human liver derived hepatoblastoma HepG2 cells and BVDV and WNV were studied in MDBK and BHK cells, respectively.
HBV antigen assay: Antiviral activity against HBV was determined using HepG2.2.15 cells, which contain a dimer of the HBV genome and express all viral gene products, including envelope glycoproteins (Sells, Chen, and Acs, 1987). Briefly, HepG2.2.15 cells were seeded in 24 well trays, and allowed to grow to confluence prior to addition of drug, as described previously (Simsek et al., 2005). After seven days of treatment, supernatants were harvested and assayed for the presence of the Large Hepatitis B (LHBs) and middle Hepatitis B (MHBs) glycoproteins by electrophoresis through 12% polyacrylamide gels and immunoblotting with a polyclonal antibody that recognizes the pre-S2 region of the LHBs and MHBs proteins (Research Diagnostics Inc., Flanders, N.J.) as described (Simsek et al., 2005). Quantitation was performed using AlphaEase software (Alphalnnotech).

For another data set, the system named is MDBK cells. The data set can be described thus: MTT compound toxicity assay on MDBK cells. The format is cell-based, Bovine. The conditions noted are these: 72 hours. As for the experimental part: (§1) Compound toxicity assay. Compound cytotoxicity was assessed by using an MTT based toxicity assay kit (Sigma, St. Louis, Mo.) as described elsewhere (Gu et al., 2006). Briefly, cells cultured under conditions identical to those used in the viral assay were incubated with various concentrations of the compound for 72 hours. MTT was added to the media to a final concentration of 0.5 mg/ml and was incubated for 3 hours at 37 C. After the culture media was removed, formazan crystals was dissolved by adding 150 ul of solubilization solution (10% Triton X-100, 0.1 N HCl in anhydrous isopropanol) for 15-30 minutes. The absorbance of the dissolved formazan was measured spectrophotometrically at 570 nm with absorbance at 690 nm as background.
(§2) The anti-viral activity of this family of compounds against BVDV was then determined by a single cycle viral yield reduction assay in Madin Darby Bovine Kidney (MDBK) cells where the compounds are incubated with cells for 20 hours during the period of infection. Yields of virus were then determined by plaque assay on new MDBK cell monolayers. Compound toxicity was measured by MTT assay and the CC50 determined as the concentration of compound producing 50% reduction in absorption readings. […] This is consistent with previous findings in which oxygenation and methoxylation of side chains emanating from the ring nitrogen were less toxic in tissue culture and in animals than straight chain alkylated DNJs (Mehta et al., 2002b).
On the technique in general: Formazan colour is commonly taken as a measure of viable cells.

The nature of data set [1]: MTT compound toxicity assay on MDBK cells. The conditions noted are these: bovine, BVDV (MDBK), concentration reducing MTT values (570 nm) by 50% relative to DMSO. It counts as cell-based, Bovine. The method, then:
as §1, §2

For another data set, the system named is DV serotype 2. Description: DV yield reduction assay in BHK cells. The format is cell-based, Dengue virus (DV) serotype 2. As for the experimental part: In the DV infection assay, a serotype 2 DV was used to infect BHK cells in the presence or absence of testing compounds and viruses produced after 72 hours were titered in a manner similar to the WNV assay. In this experiment, N-butylcyclohexyl-DNJ (SP169), N-pentyl(1-hydroxylcyclohexyl)-DNJ (OSL-95II), […] and N-propylcyclohexyl-DNJ (SP173) were compared with NNDNJ (Wu et al., 2002) and castanospermine. […] All compounds had no toxicity at the highest concentrations used in this experiment (FIG. 5B, Table 1).

The subject of another data set is WNV. The data set can be described thus: WNV yield reduction assay in BHK cells. The method, then:
Cells and viruses. BVDV-free MDBK cells (CCL 22) were obtained from the American Type Culture Collection and propagated in DMEM/F12 essential medium supplemented with penicillin (500 U/ml), streptomycin (500 U/ml), and 10% heat inactivated horse serum (Invitrogen). Cells were maintained in a humidified incubator at 37° C. with 5% CO2. BVDV (NADL strain) was obtained from Dr. Rubin Donis (Univ. of Nebraska-Lincoln). For infections, virus inoculum was added in complete medium and adsorbed for 1 h at 37° C., the inoculum was then removed, the cells washed once with medium and fresh medium containing compounds added. Virus stocks were prepared by freeze-thawing the infected cells and culture supernatant three times followed by centrifugation at 1,000 g for 5 min. Stock titers were determined, and stocks were aliquoted and stored at −80° C. WNV was obtained from a cDNA clone of a human 2002 isolate from Texas (Rossi et al., 2005); virus obtained from BHK cells electroporated with the in vitro synthesized RNA from this cDNA clone was passaged in Vero cells before use in antiviral assays. Dengue virus (DV) serotype 2 was a New Guinea C virus that had been passaged 28 times in suckling mouse brain, twice in Vero cells, and once in C6/36 mosquito cells.
WNV and DV Yield Reduction assay: Antiviral activity against WNV was evaluated in a yield reduction assay. Briefly, BHK cells were plated in 96-well plates at a concentration of 2.5×10^4 cells/well. 24 hours after plating, the cells were infected with WNV at an MOI of 0.05. After 1 hour the inoculum was aspirated and the cells re-fed with fresh DMEM containing dilutions of the test compounds. Plates were then incubated at 37° C. for 48 hours, the supernatant collected and the WNV produced titered. For virus titration, Vero cells were plated in 96-well plates at 8.0×10^3 cells/well and incubated overnight. The Vero cell monolayers were then infected for 1 hour with various dilutions of the WNV supernatant, overlaid with media containing 0.6% tragacanth (ICN, CA) and incubated at 37° C. for 24-30 hours. The culture media was then aspirated; the plate was rinsed, air-dried, and fixed with 50 ul/well acetone/methanol (50:50). Viral foci were detected for enumeration by immunostaining as described previously (Rossi et al., 2005). For antiviral testing against DV, DV serotype 2, drug incubations and titrations were performed essentially as described for WNV, except that the virus was harvested from drug-treated cultures 72 hrs after infection, and foci were stained using hybridoma culture fluid harvested from monoclonal antibody-producing hybridoma clone D1-4G2 (Gentry et al., 1982) following 3 days of incubation on Vero cells under the tragacanth overlay.
For this purpose, BHK cells were infected with WNV at an moi of 0.05, and incubated in either the absence or presence of various concentrations of N-butylcyclohexyl-DNJ (SP169) and N-propylcyclohexyl-DNJ (SP173). After three days, the amount of progeny virus produced was determined by plaque assays on indicator Vero cells.

Data set [2] is described as follows: MTT compound toxicity assay on BHK cells. The format is cell-based. The conditions noted are these: hamster; WNV (BHK); MTT, 50% reduction relative to DMSO. As for the experimental part:
as §1

For another data set, the system named is BVDV. The data set can be described thus: BVDV single cycle virus yield reduction assay in MDBK cells. The format is cell-based, Bovine Viral Diarrhea virus (NADL strain). The method, then: BVDV antiviral and plaque assays. To evaluate antiviral activity against BVDV, a single cycle virus yield reduction assay was performed in the presence of various concentrations of the test compounds. Specifically, 2×10^5 MDBK cells/well were plated in 24 well plates. Twenty-four hours later, the cells were infected with BVDV at a multiplicity of infection (moi) of 0.5 PFU/cell in 100 ul complete media. After adsorption for 1 h at 37° C., the inoculum was removed, and cells were washed with media before media containing vehicle or various concentrations of each compound was added. At 22 hour post infection, both cell and media were collected and freeze-thawed three times before the virus was titered. For BVDV virus titer determination, 10^−2, 10^−3, and 10^−4 dilutions of virus were inoculated onto MDBK cells as described previously (Gu et al., 2000; Jordan et al., 2002). After absorption and washing the cells were overlaid with medium containing methylcellulose or soft agar and incubated at 37° C. for 3 days or until plaques were visible. Plaques were counted directly under the microscope or after staining with crystal violet in 70% methanol for 15 min.
as §2

The test system of a further data set is BHK cells. Description: MTT compound toxicity assay on BHK cells. The format is cell-based. The method, then:
as §1

The subject of the next data set is MHBs. The conditions noted are these: MHBs expressed transiently in cells; read-out: IC50, reduction of secretion of MHBs; cited from earlier work.

Regarding `OC[C@H]1NC[C@H](O)[C@@H](O)[C@@H]1O` [DNJ, 1,5-dideoxy-1,5-imino-D-glucitol, reference compound], the “inhibition of the ER glucosidase” value with ER glucosidase was “at least 90%”. Besides, the “reduction of MHBs and LHBs in culture medium (in words)” value in the data set with HBV (6000 uM (6 mM), FIG. 6B) was “antiviral activity at this dose is consistent with previous findings”.

With `OC[C@@H]1[C@@H](O)[C@H](O)[C@@H](O)CN1CCCCCC1(O)CCCCC1` [OSL-95II, N-pentyl(1-hydroxycyclohexyl)-1,5-dideoxy-1,5-imino-D-glucitol], in the data set on MDBK cells (MTT, FIG. 4B), the “toxicity in MDBK cells (in words)” value was “much less toxic than N-pentylcyclohexyl-DNJ (OSL-1); also recorded: significantly less cytotoxic against MDBK cells”. In addition, the CC50 at 72 h was greater than 500000 nM in [1] and greater than 100000 nM in [2]. In addition, the IC50 in the data set on DV serotype 2 (Dengue virus, BHK, 72 h) was 2000 nM; with DV serotype 2 (Dengue virus, BHK, 72 h, read-out: IC50 against DV), 1000 to 2000 nM; with WNV (West Nile virus, BHK, 48 h) it was 4500 nM; in the data set on BVDV (Bovine viral diarrhea virus isolates and strains, MDBK), 3000 nM. The selectivity ratio at 72 h with DV serotype 2 (hamster, DV (BHK), read-out: SI (Selective Index, CC50/IC50)) was greater than 50. In addition, in the data set on WNV (hamster), the selectivity ratio at 48 h was greater than 9. The selectivity ratio at 20 h in the data set on BVDV (bovine, BVDV (MDBK), read-out: SI (Selective Index, CC50/IC50)) was greater than 166.

On to `OC[C@@H]1[C@@H](O)[C@H](O)[C@@H](O)CN1CCCCC1CCCCC1` [SP169, N-butylcyclohexyl-DNJ], for which the CC50 is 300000 nM in the data set with MDBK cells (BVDV (MDBK), concentration reducing MTT values (570 nm) by 50% relative to DMSO) and greater than 100000 nM in the data set on BHK cells (WNV (BHK), MTT, 50% reduction relative to DMSO). The “SI (Selective Index, CC50/IC50)” value with DV serotype 2 (DV (BHK)) was greater than 66; in the data set on WNV (WNV (BHK)), greater than 40; with BVDV (BVDV (MDBK)), greater than 100. Moreover, the IC50 in the data set on DV serotype 2 (DV (BHK), serotype 2, 72 hrs, read-out: IC50) is 1500 nM; in the data set on WNV (WNV (BHK), plaque number reduced by 50% relative to DMSO, 48 hours) it was 2500 nM; with WNV (read-out: concentration inhibiting 50% of the WNV progeny produced, text to FIG. 3B, BHK cells, moi 0.05), 5000 nM; with BVDV (tissue culture, data not shown, read-out: concentration inhibiting 50% of the yield of BVDV), 3000 nM; in the data set with MHBs, no more than 35000 nM. The “antiviral activity against WNV (in words)” value with WNV (BHK cells, moi 0.05, FIG. 3B / 4D) is listed as “comparable to NNDNJ in activity”. In the data set on BHK cells (BHK cells, measured in parallel to WNV assay, data not shown), the “concentration without any detectable cell toxicity (highest concentration tested)” value came out at 100 µM. In the data set with HBV (50 uM, FIG. 6A), the “inhibition of secretion of viral glycoproteins MHBs and LHBs (in words)” value is reported as “unable to inhibit secretion of viral glycoproteins”.

As a reminder, the CC50 is the concentration giving 50% cytotoxicity. A high value points to lower toxicity to the cells.
